Laboratory results published in US20230346827A1 (priority 2020, published 2023).
Marks after values point to notes of the source that are not given here.

System: rats subjected to sTBI
Assay: sTBI rats, LMW-DS 15 mg/kg s.c.: HPLC of brain free amino acids (Example 3)
Type: in vivo, rat
[1] = Acute phase 1: drug 30 min, sacrifice 2 d post-TBI
[2] = Acute phase 2: drug 30 min, sacrifice 7 d post-TBI
[3] = Chronic phase: drug 3 d, sacrifice 7 d post-TBI

sodium salt of dextran sulfate [LMW-DS]
ALA [1]: 0.50±0.12^a µmol/g (w.w.) | ARG [1]: 0.13±0.02^b,d µmol/g (w.w.) | ASN [1]: 0.12±0.02^i µmol/g (w.w.) | ASP [1]: 2.40±0.56^d,i µmol/g (w.w.) | CITR [1]: 0.018 ± 0.004 µmol/g (w.w.) | GABA [1]: 1.43±0.25^a µmol/g (w.w.) | GLN [1]: 4.78±1.09^a µmol/g (w.w.) | GLU [1]: 9.81±1.66^i µmol/g (w.w.) | GLY [1]: 0.83±0.25^a,c µmol/g (w.w.) | HIS [1]: 0.068±0.015^b µmol/g (w.w.) | L-Cystat [1]: 0.185±0.031^b,c,i µmol/g (w.w.) | MET [1]: 0.016±0.005^d,j µmol/g (w.w.) | SAH [1]: 0.033±0.008^b,c,j µmol/g (w.w.) | SER [1]: 0.88±0.25^a µmol/g (w.w.) | TAU [1]: 4.86±00.85^b µmol/g (w.w.) | THR [1]: 0.92±0.29^a µmol/g (w.w.) | TYR [1]: 0.15 ± 0.03 µmol/g (w.w.) | VAL [1]: 0.042 ± 0.011 µmol/g (w.w.) | ALA [2]: 0.52±0.24^a,e µmol/g (w.w.) | ARG [2]: 0.16 ± 0.03 µmol/g (w.w.) | ASN [2]: 0.13±0.03^i µmol/g (w.w.) | ASP [2]: 2.94±0.98^f,j µmol/g (w.w.) | CITR [2]: 0.018 ± 0.008 µmol/g (w.w.) | GABA [2]: 1.60±0.24^a µmol/g (w.w.) | GLN [2]: 3.66 ± 0.41 µmol/g (w.w.) | GLU [2]: 9.93±1.56^e,i µmol/g (w.w.) | GLY [2]: 0.71±0.16^f,i µmol/g (w.w.) | HIS [2]: 0.055 ± 0.019 µmol/g (w.w.) | L-Cystat [2]: 0.173±0.038^b,f,i µmol/g (w.w.) | MET [2]: 0.022±0.006^b,e,i µmol/g (w.w.) | SAH [2]: 0.026±0.010^f,i µmol/g (w.w.) | SER [2]: 0.71±0.28^b µmol/g (w.w.) | TAU [2]: 3.80 ± 1.19 µmol/g (w.w.) | THR [2]: 0.66 ± 0.23 µmol/g (w.w.) | TYR [2]: 0.172±0.046^b,f µmol/g (w.w.) | VAL [2]: 0.057 ± 0.017 µmol/g (w.w.) | ALA [3]: 0.57±0.28^a,e µmol/g (w.w.) | ARG [3]: 0.14 ± 0.02 µmol/g (w.w.) | ASN [3]: 0.18±0.02^a µmol/g (w.w.) | ASP [3]: 4.46±0.70^a,f µmol/g (w.w.) | CITR [3]: 0.020 ± 0.006 µmol/g (w.w.) | GABA [3]: 1.85±0.65^a µmol/g (w.w.) | GLN [3]: 3.98 ± 0.34 µmol/g (w.w.) | GLU [3]: 13.58±1.28^a µmol/g (w.w.) | GLY [3]: 1.05±0.13^a,f µmol/g (w.w.) | HIS [3]: 0.047 ± 0.021 µmol/g (w.w.) | L-Cystat [3]: 0.26±0.05^a,f µmol/g (w.w.) | MET [3]: 0.009±0.004^b µmol/g (w.w.) | SAH [3]: 0.050±0.013^a µmol/g (w.w.) | SER [3]: 0.93±0.27^a,e µmol/g (w.w.) | TAU [3]: 4.49±0.43^a µmol/g (w.w.) | THR [3]: 0.75±0.24^a,e µmol/g (w.w.) | TYR [3]: 0.21±0.05^f µmol/g (w.w.) | VAL [3]: 0.040±0.016^b µmol/g (w.w.) | glutamate excitotoxicity marker (LMW-DS injected at 3 days after sTBI): no efficacy | increase in glutamate (GLU) induced by sTBI (drug administered early post-injury (30 min following sTBI)): remarkable inhibition
